Measured values from patent US8618046B2, “Treatment of atherosclerosis with cholesterol ester transport protein mimotopes” (Affiris AG, priority 2007, dated 2013).
Entries after “also recorded” stand apart in the source; their conditions may differ. Where no end group is shown, it is not given here.

Legend:
[1] = test system: rabbit CETP; test: Anti-protein ELISA of sera of immunised mice, plates coated with purified rabbit CETP; format: in vivo, mouse
Excerpt: (§1) FIGS. 12a and 12b show the in vivo induction of CETP specific antibodies by the administration of the mimotopes of the invention. Titers to p4073 and its correlation to titers to CETP of selected groups (which show high titers against p4073): gr.4, gr.9, gr.10, gr.14, gr.16-20/gr.1 (KLH), gr.2 (original epitope) as controls. Coating: recombinant GST-CETP or purified rabbit CETP, respectively:
(§2) Sera of each group (5 Balb/c mice each) were combined, diluted 1:100 and tested on ELISA plates coated with recombinant GST-CETP or rabbit CETP, respectively. Detection of bound antibodies was with algG.
(§3) Titers to injected peptides as well as to the original CETP epitope were determined. In addition, for selected sera also immune response to CETP protein was measured (Results see FIGS. 7a to 7d and FIGS. 19a to 19e).

[2] = test system: recombinant GST-CETP; test: Anti-protein ELISA of sera of immunised mice, plates coated with recombinant GST-CETP; format: in vivo
Excerpt: as §1, §2, §3

[3] = test system: irrelevant peptide-BSA; test: Titer to irrelevant peptide in sera of immunised animals (peptide ELISA); format: in vivo, mouse; details: FIG. 11; Balb/c mice, 30 μg peptide, Alum as adjuvant; S3; detection αIgG
Procedure: (§4) Balb/c mice/30 μg Peptide, 2 injections in 2 week intervals. S3=2 weeks after 3rd injection. Alum as adjuvant. Titers against original epitope (p4073) induced by injection of mimotopes. Well coating: 50 μl of 1 μM p4073-BSA or 1 μg/ml activated KLH. Detection: αIgG:
(§5) Subcutaneous injections in the flank were performed in week 1, week 3 and week 7 with 30 μg peptide-KLH per mouse. Intradermal injections in the ear were performed in week 1, week 3 and week 6 with 10 μg peptide-KLH per mouse. Sera were taken 2 weeks after the 3rd injection. Vaccine formulation with Alum (always 1 mg per mouse): up to 250 μl, injected into one flank. The Alum formulation with 1 ml per mouse (500 μl into each flank) was in 1×PBS as buffer.
Vaccine formulation with Gerbu Adjuvant 100 (Gerbu Cat. Nr. #3100; always 50 μl adjuvant per mouse): 200 μl, 100 μl injected into each flank comprising 1×HEPES as buffer.
Female Balb/c mice, five mice per group, were subcutaneously immunized with 30 μg peptide coupled to KLH. Control groups were administered KLH or C-[…] (SEQ ID NO. 147). As adjuvant alum was used. […] The in vitro ELISA assay to determine the antibody titer was performed with pooled sera after two vaccinations in a two week interval (S2; see FIGS. 7a to 7d). The wells of the ELISA plate were coated with KLH (positive control), mimotope-BSA conjugate, C-[…] (SEQ ID NO. 147) and a irrelevant peptide-BSA conjugate (negative control). The detection was performed with anti-mouse IgG.

[4] = test system: original epitope (p4073); test: Titer to the original CETP epitope in sera of immunised animals (peptide ELISA); format: in vivo, mouse; details: FIG. 11; Balb/c mice, 30 μg peptide, Alum as adjuvant; S3; coating 1 μM p4073-BSA; detection αIgG
Procedure: as §4
(§6) Inhibiting as well as some non-inhibiting peptides were coupled to KLH and injected into mice (wildtype or CETP-transgenic mice; subcutaneously into the flank or intra-dermaly into the ears) or rabbits (subcutaneously into the flank) together with an appropriate adjuvant (aluminium hydroxide and Gerbu 100 for mice and aluminium hydroxide or CFA/IFA for rabbits).
as §3, §5
Vaccine formulation with Gerbu Adjuvant 100 (Gerbu Cat. Nr. #3100; always 50 μl adjuvant per mouse): 200 μl, 100 μl injected into each flank comprising 1×HEPES as buffer. […]

[5] = test system: injected peptide-BSA; test: Titer to the injected peptide in sera of immunised animals (peptide ELISA); format: in vivo, mouse; details: FIG. 11; Balb/c mice, 30 μg peptide, Alum as adjuvant; S3 = 2 weeks after 3rd injection; detection αIgG
Procedure: Balb/c mice/30 μg Peptide, 2 injections in 2 week intervals. S3=2 weeks after 3rd injection. Alum as adjuvant. […] Detection: αIgG:
as §6, §3
as §5, with “buffer. […]” for “buffer.”

[6] = test system: CETP; test: CETP activity assay: human serum mixed with serum from vaccinated wild-type mice; format: biochemical; details: for CETP activity after addition of serum from vaccinated mice: FIG. 14, 0.6 μl human serum; for inhibition of CETP activity in human serum (in words): FIGS. 15 to 17 and remarks in the example set-up table, sera of vaccinated mice
[7] = FIG. 12a, sera of immunised mice, purified rabbit CETP
[8] = FIG. 12a, sera of immunised mice
[9] = FIG. 12b, sera of immunised mice, purified rabbit CETP
[10] = FIG. 12b, sera of immunised mice
[11] = FIG. 13, combined sera of 5 Balb/c mice, diluted 1:100

Substance | ELISA signal, rabbit CETP [1, 7] | ELISA signal, recombinant GST-CETP [2, 8] | titer, irrelevant peptide-BSA [3] | titer, original epitope-BSA [4] | titer, injected peptide-BSA [5] | CETP activity after addition of serum from vaccinated mice ([6]; 0.2 μl mouse serum) | CETP activity after addition of serum from vaccinated mice ([6]; 1.2 μl and 0.6 μl mouse serum) | inhibition of CETP activity in human serum (in words) [6] | ELISA signal, rabbit CETP [1, 9] | ELISA signal, recombinant GST-CETP [2, 10] | inhibition of CETP activity in human serum (in words) ([6]; listed as p4325-KLH/Alum) | ELISA signal, rabbit CETP [1, 11] | ELISA signal, recombinant GST-CETP [2, 11]
p4361-KLH: C-FGFPAHVFIDWLQSLS coupled to KLH (CFGFPAHVFIDWLQSLS; also: coupled to KLH) | 1.51 | 1.64 | 10 | 9.530 | 17.940 | reduces significantly said activity | completely inhibits CETP activity | inhibits significantly CETP activity |  |  |  |  | 
p4344-KLH: C-FDFPAHVSIDWLQSLS coupled to KLH (CFDFPAHVSIDWLQSLS; also: coupled to KLH) |  |  | 10 | 3.580 | 12.200 |  |  |  | 0.43 | 0.35 |  |  | 
p4366-KLH: C-FGFPSHLIIDWSQSLS coupled to KLH (CFGFPSHLIIDWSQSLS; also: coupled to KLH) |  |  | 10 | 3.600 | 4.700 |  |  |  | 0.65 | 0.4 |  |  | 
p4341-KLH: C-WGFPAHVSIDWLQSLS coupled to KLH (CWGFPAHVSIDWLQSLS; also: coupled to KLH) | 0.18 | 0.39 | 10 | 5.500 | 10.350 |  |  |  |  |  |  |  | 
p4358-KLH: C-FGFPAHISIDWLQSLS coupled to KLH (CFGFPAHISIDWLQSLS; also: coupled to KLH) | 0.58 | 0.68 | 10 | 12.940 | 16.500 |  |  |  |  |  |  |  | 
p4325-KLH: C-FGFPSHLIIDWLQSLS coupled to KLH (CFGFPSHLIIDWLQSLS; also: coupled to KLH) |  |  | 10 | 1.820 | 2.930 |  |  |  | 0.85 | 0.59 | inhibits significantly CETP activity; also recorded: C-31 and C-33; sera inhibiting |  | 
p4343-KLH: C-FYFPAHVSIDWLQSLS coupled to KLH (CFYFPAHVSIDWLQSLS; also: coupled to KLH) |  |  | 10 | 2.900 | 5.580 |  |  | C-33: recogn. protein/not in- | 1.05 | 0.61 |  |  | 
p4342-KLH: C-FSFPAHVSIDWLQSLS coupled to KLH (CFSFPAHVSIDWLQSLS; also: coupled to KLH) |  |  | 10 | 1.610 | 4.620 |  |  |  | 0.41 | 0.38 |  |  | 
p4340-KLH: C-PGFPAHVSIDWLQSLS coupled to KLH (CPGFPAHVSIDWLQSLS; also: coupled to KLH) | 0.21 | 0.49 | 10 | 15.640 | 18.100 |  |  |  |  |  |  |  | 
p4359-KLH: C-FGFPAHIIIDWLQSLS coupled to KLH (CFGFPAHIIIDWLQSLS; also: coupled to KLH) | 0.54 | 0.79 | 10 | 5.340 | 8.540 |  |  |  |  |  |  |  | 
p4362-KLH/Alum: C-FGFPAHVYIDWLQSLS coupled to KLH, Alum (CFGFPAHVYIDWLQSLS; also: coupled to KLH) |  |  |  |  |  |  |  | inhibits significantly CETP activity |  |  |  | 0.94 | 0.86
p4347-KLH: C-FGFPAHVSIDWLQLLS coupled to KLH (CFGFPAHVSIDWLQLLS; also: coupled to KLH) | 0.2 | 0.35 | 10 | 9.160 | 12.000 |  |  |  |  |  |  |  | 
p4345-KLH: C-FATPSHLIIDWLQSLS coupled to KLH (CFATPSHLIIDWLQSLS; also: coupled to KLH) |  |  | 10 | 1.270 | 8.380 |  |  |  | 0.46 | 0.39 |  |  | 
